In patent US20260294906A1, “TREATING PSORIASIS USING A SMALL MOLECULE INHIBITOR OF TUMOR NECROSIS FACTOR ALPHA” (SANOFI, priority 2023, published 2026):
Entries after “also recorded” stand apart in the source; their conditions may differ.

Columns and labels:
[1] = test system: participants with mild to moderate psoriasis; test: 12-lead ECG (QTcF) in the clinical study; format: in vivo, human
Experimental: (§1) Two study interventions were used, Compound 1 and placebo. The Compound 1 intervention comprised 4× tablets of Compound 1 50 mg twice daily, i.e. 200 mg BID, for 4 weeks. The placebo intervention was 4× tablets of placebo twice daily for 4 weeks. Tablets were administered orally.
The following electrocardiogram data were recorded: • Standard 12-lead ECGs (safety ECGs) were recorded after at least 10 minutes in supine position using an electrocardiographic device. The electrodes were positioned at the same place for each ECG recording throughout the study (e.g., attachment sites of the leads were visualized on a transparent paper). • Triplicate ECGs were recorded within 5 minutes with at least 1 min between 2 replicates for all ECG. • Each ECG consisted of a 10-second recording of the 12 leads simultaneously, leading to: • A single 12-lead ECG (50 mm/s, 10 mm/mV) printout with heart rate, PR, QRS, QT, QTc automatic correction evaluation (by the ECG device), including date, time, and number of the participant, signature of the research physician, and at least 3 complexes for each lead. The Investigator's medical opinion and automatic values were recorded in the eCRF. This printout was retained at the site. A second printout was performed also, if needed. • A digital storage that enables eventual further reading by an ECG central laboratory: each digital file will be identified by theoretical time (day and time Dxx Txx Hxx), real date and real time (recorder time), Sponsor study code, participant number (i.e., 3 digits), and site and country numbers, if relevant. The digital recording, data storage, and transmission (whenever requested) need to comply with all applicable regulatory requirements (i.e., FDA 21 code of federal regulations [CFR], Part 11).
For AESI in this study, the Sponsor was to be informed immediately (i.e., within 24 hours), as per SAE notification guidelines, even if a seriousness criterion was not met, using the corresponding screens in the eCRF. • ALT increased >3×ULN. • QT prolongation (QTcF≥500 milli seconds [ms]) and/or a delta QTc change from baseline>60 ms (12-lead ECG). In the event of prolongation of QTc interval (automatic measurement)≥500 ms, confirmed by a manual reading by the Investigator or a physician delegated by the Investigator using the Fridericia formula for correcting QT, the participant was placed under supervision in a specialized setting. Investigational medicinal product administration was stopped, and appropriate blood samples collected. Subsequent ECG monitoring of the participant was then performed on a regular and clinically responsible basis until the QTc interval returned to a safe value as determined by the Investigator in agreement with the Sponsor. • Photosensitivity (Grade 2 and above AE due to sun exposure). • Pregnancy. • Symptomatic overdose. • An overdose (accidental or intentional) with the IMP is an event suspected by the Investigator or spontaneously notified by the participant (not based on systematic pills count) and defined as at least twice the intended dose within the intended therapeutic interval, adjusted according to the tested drug.

IL-17F = test: Serum levels of biomarker IL-17F (single molecule counting sandwich immunoassay); format: in vivo, human
Experimental: The primary objective of the study was to assess the safety, tolerability, and clinical efficacy of Compound 1 at 200 mg BID via oral administration. Also evaluated was the clinical effect of Compound 1 as compared to placebo on the percent change in PASI and TLS scores from baseline to week 2 and week 4. The percent change in PASI score from baseline to week 4 was determined. TLS score was also assessed over the same time period. Also assessed was the effect of Compound 1 on biomarkers of psoriasis. Blood samples collected at predetermined time points were processed to quantify serum levels of biomarkers, including interleukin (IL)-17A, IL-17F, and IL-22 by high sensitivity methods. IL-17A, IL-17F and IL-22 are the main cytokines released by Th17 cells. Plasma levels of Compound 1 were measured to assess pharmacokinetics in the study population.
as §1
Blood samples were processed for analysis of IL-17A, IL-17F and IL-22 in serum samples by high sensitivity methods. Samples were collected according to the schedule of activity described above.
As indicated above, peripheral blood samples collected at predetermined time points were processed to quantify serum levels of biomarkers of psoriasis including IL-17A, IL-17F, and IL-22. Levels of IL-17A and IL-17F were quantified using a single molecule counting sandwich immunoassay (SMCxPro™, Millipore—see also Hwang et al., Methods (2019) 158:69-76). Levels of IL-22 were quantified using a single-molecule array ELISA (SIMOA™, Myriad RBM—see also Rissin et al., Anal Chem (2011) 83(6):2279-2285). Statistical analysis was based on geometric mean ratio to baseline; a two-sample t-test at significance alpha level of 5% was used for calculation of the p-values.

For `CN1C(=O)c2cccc(OC(F)F)c2[C@H]2C[C@@H]1c1nc3ccc(-c4cnc(C5(N)CCC5)nc4)cc3n12` [Compound 1, (7R,14R)-11-[2-(1-aminocyclobutyl)pyrimidin-5-yl]-1-(difluoromethoxy)-6-methyl-6,7-dihydro-7,14-methanobenzimidazo[1,2-b][2,5]benzodiazocin-5(14H)-one], the “QTcF change from baseline >60 msec and/or QTcF>480 msec” value ([1]; 200 mg BID) was “no QTcF change from baseline >60 msec and/or QTcF>480 msec”, the “QTcF change from baseline, one participant” value ([1]; 200 mg BID, Day 8, baseline 426 msec) was 33 ms and the “Number of participants with QTcF>450 msec” value ([1]; 200 mg BID, one single occasion on Day 8) was “One”. The “QTcF, one participant” value ([1]; 200 mg BID, one single occasion on Day 8, baseline 426 msec) was 459 ms, the “risk of QTc prolongation / impact on cardiac parameters (in words)” value ([1]; 4-week clinical trial) was “No indication for risks on QTc prolongation was observed; also recorded: neither was any significant impact on cardiac parameters (e.g., QTcF interval)” and the “Serum level of IL-17F (in words)” value (IL-17F; after treatment for 4 weeks) was “substantially decreased”. For the same compound, the “Serum level of IL-17F, geometric mean (geometric SE)” value (from here on “Serum level … (geometric SE)”) (IL-17F; baseline (before treatment)) was 2.63 (1.19) pg/mL, the “Serum level … (geometric SE)” value (IL-17F; week 2, 200 mg BID) was 1.65 (1.21) pg/mL and the “Serum level … (geometric SE)” value (IL-17F; week 4, 200 mg BID) was 1.35 (1.21) pg/mL.
